Laboratory results reported in paper PMC8113020 (Chemistry of Heterocyclic Compounds, 2021).

System: Coxsackie B3 virus (strain Nancy)
Assay: microbe, parasite or virus in culture
Assay type: cell-based
Conditions: Enterovirus B, B3, Vero, 48 h, read-out: IC50 (50% inhibitory concentration)

With `NC(=O)c1ncn([C@@H]2O[C@H](CO)[C@@H](O)[C@H]2O)n1` [Ribavirin] the IC50 was 56 ± 8 µM.
